Assay results from US20020026053A1, “Novel 3-(substituted) -2- indolinones compounds and use thereof as inhibitors of protein kinase activity” (priority 1997, published 2002).

These compounds were tested on PDGF-R (assay: PDGF-R Assay (cellular ELISA, U1242 cells)). Settings: protocol P.119.
Type: cell-based
Parameters: concentration or dose not given beside the values
Summary of the method: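 U1242 cells seeded in 0.5% serum, serum-starved, then exposed to compound for 2 hr at 37°C before 5–10 min ligand stimulation and lysis in HNTG. Lysate captured on receptor-antibody-coated plates; phosphotyrosine detected with polyclonal anti-pTyr, goat anti-rabbit IgG and ABTS/H2O2, A410 (ref 630 nm), versus untreated cells.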

For Cc1c(Br)ccc2c1C(=Cc1cccc(Oc3cccc(C(F)(F)F)c3)c1)C(=O)N2 [10737/C11], which “PDGF Kinase % Inhibition (P.119)” value is on record?
Its value is 32.5%.

With CCOc1ccc(C=C2C(=O)Nc3ccc(S(=O)(=O)NC)cc32)cc1 [10737/D02] as the compound, how does the “PDGF Kinase % Inhibition (P.119)” value read?
Its value is −4.2%.

For CNS(=O)(=O)c1ccc2c(c1)C(=Cc1ccc(C)cc1C)C(=O)N2 [10737/D03], which “PDGF Kinase % Inhibition (P.119)” value is on record?
The value was −5.8%.

For CNS(=O)(=O)c1ccc2c(c1)C(=Cc1cc(F)ccc1F)C(=O)N2 [10737/D04], which “PDGF Kinase % Inhibition (P.119)” value is on record?
Its value is 9.4%.

With CNS(=O)(=O)c1ccc2c(c1)C(=Cc1cccc(F)c1F)C(=O)N2 [10737/D05] as the compound, how does the “PDGF Kinase % Inhibition (P.119)” value read?
Its value is 2.2%.

How did the “PDGF Kinase % Inhibition (P.119)” value turn out when CNS(=O)(=O)c1ccc2c(c1)C(=Cc1ccc(OC)c(F)c1)C(=O)N2 [10737/D06] was run?
The value was −10.2%.

With CNS(=O)(=O)c1ccc2c(c1)C(=Cc1cc(C)ccc1C)C(=O)N2 [10737/D07] as the compound, how does the “PDGF Kinase % Inhibition (P.119)” value read?
The value was −5.0%.

CNS(=O)(=O)c1ccc2c(c1)C(=Cc1ccc3ccccc3c1)C(=O)N2 [10737/D08] was tested. Which “PDGF Kinase % Inhibition (P.119)” value did it give?
Its value is 3.0%.

How did the “PDGF Kinase % Inhibition (P.119)” value turn out when CNS(=O)(=O)c1ccc2c(c1)C(=Cc1ccc(Oc3ccccc3)cc1)C(=O)N2 [10737/D09] was run?
Its value is 1.0%.

With CNS(=O)(=O)c1ccc2c(c1)C(=Cc1cccc(Oc3ccc(C(C)(C)C)cc3)c1)C(=O)N2 [10737/D10] as the compound, how does the “PDGF Kinase % Inhibition (P.119)” value read?
Its value is 7.0%.

For CNS(=O)(=O)c1ccc2c(c1)C(=Cc1cccc(Oc3cccc(C(F)(F)F)c3)c1)C(=O)N2 [10737/D11], which “PDGF Kinase % Inhibition (P.119)” value is on record?
Its value is 5.4%.

CCOc1ccc(C=C2C(=O)Nc3ccc(S(=O)(=O)Nc4ccc(C(F)(F)F)cc4)cc32)cc1 [10737/E02] was tested. Which “PDGF Kinase % Inhibition (P.119)” value did it give?
The value was 12.9%.

For Cc1ccc(C=C2C(=O)Nc3ccc(S(=O)(=O)Nc4ccc(C(F)(F)F)cc4)cc32)c(C)c1 [10737/E03], which “PDGF Kinase % Inhibition (P.119)” value is on record?
The value was 39.2%.

For O=C1Nc2ccc(S(=O)(=O)Nc3ccc(C(F)(F)F)cc3)cc2C1=Cc1cc(F)ccc1F [10737/E04], which “PDGF Kinase % Inhibition (P.119)” value is on record?
The value was 29.7%.

For O=C1Nc2ccc(S(=O)(=O)Nc3ccc(C(F)(F)F)cc3)cc2C1=Cc1cccc(F)c1F [10737/E05], which “PDGF Kinase % Inhibition (P.119)” value is on record?
The value was 33.3%.

With COc1ccc(C=C2C(=O)Nc3ccc(S(=O)(=O)Nc4ccc(C(F)(F)F)cc4)cc32)cc1F [10737/E06] as the compound, how does the “PDGF Kinase % Inhibition (P.119)” value read?
Its value is 26.5%.

Cc1ccc(C)c(C=C2C(=O)Nc3ccc(S(=O)(=O)Nc4ccc(C(F)(F)F)cc4)cc32)c1 [10737/E07] was tested. Which “PDGF Kinase % Inhibition (P.119)” value did it give?
The value was 28.1%.

O=C1Nc2ccc(S(=O)(=O)Nc3ccc(C(F)(F)F)cc3)cc2C1=Cc1ccc2ccccc2c1 [10737/E08] was tested. Which “PDGF Kinase % Inhibition (P.119)” value did it give?
Its value is 35.6%.

With O=C1Nc2ccc(S(=O)(=O)Nc3ccc(C(F)(F)F)cc3)cc2C1=Cc1ccc(Oc2ccccc2)cc1 [10737/E09] as the compound, how does the “PDGF Kinase % Inhibition (P.119)” value read?
The value was 25.7%.

Which “PDGF Kinase % Inhibition (P.119)” value does the source give for CC(C)(C)c1ccc(Oc2cccc(C=C3C(=O)Nc4ccc(S(=O)(=O)Nc5ccc(C(F)(F)F)cc5)cc43)c2)cc1 [10737/E10] here?
Its value is 30.9%.

With O=C1Nc2ccc(S(=O)(=O)Nc3ccc(C(F)(F)F)cc3)cc2C1=Cc1cccc(Oc2cccc(C(F)(F)F)c2)c1 [10737/E11] as the compound, how does the “PDGF Kinase % Inhibition (P.119)” value read?
The value was 38.0%.

How did the “PDGF Kinase % Inhibition (P.119)” value turn out when CCOc1ccc(C=C2C(=O)Nc3ccc(S(=O)(=O)N4CCOCC4)cc32)cc1 [10737/F02] was run?
Its value is 9.0%.

Cc1ccc(C=C2C(=O)Nc3ccc(S(=O)(=O)N4CCOCC4)cc32)c(C)c1 [10737/F03] was tested. Which “PDGF Kinase % Inhibition (P.119)” value did it give?
Its value is 7.8%.

For O=C1Nc2ccc(S(=O)(=O)N3CCOCC3)cc2C1=Cc1cc(F)ccc1F [10737/F04], which “PDGF Kinase % Inhibition (P.119)” value is on record?
Its value is 3.8%.

With O=C1Nc2ccc(S(=O)(=O)N3CCOCC3)cc2C1=Cc1cccc(F)c1F [10737/F05] as the compound, how does the “PDGF Kinase % Inhibition (P.119)” value read?
The value was 1.0%.

Which “PDGF Kinase % Inhibition (P.119)” value does the source give for COc1ccc(C=C2C(=O)Nc3ccc(S(=O)(=O)N4CCOCC4)cc32)cc1F [10737/F06] here?
Its value is 11.3%.

Cc1ccc(C)c(C=C2C(=O)Nc3ccc(S(=O)(=O)N4CCOCC4)cc32)c1 [10737/F07] was tested. Which “PDGF Kinase % Inhibition (P.119)” value did it give?
Its value is 12.9%.

With O=C1Nc2ccc(S(=O)(=O)N3CCOCC3)cc2C1=Cc1ccc2ccccc2c1 [10737/F08] as the compound, how does the “PDGF Kinase % Inhibition (P.119)” value read?
The value was 9.8%.

O=C1Nc2ccc(S(=O)(=O)N3CCOCC3)cc2C1=Cc1ccc(Oc2ccccc2)cc1 [10737/F09] was tested. Which “PDGF Kinase % Inhibition (P.119)” value did it give?
The value was 9.8%.

Which “PDGF Kinase % Inhibition (P.119)” value does the source give for CC(C)(C)c1ccc(Oc2cccc(C=C3C(=O)Nc4ccc(S(=O)(=O)N5CCOCC5)cc43)c2)cc1 [10737/F10] here?
Its value is 11.0%.

O=C1Nc2ccc(S(=O)(=O)N3CCOCC3)cc2C1=Cc1cccc(Oc2cccc(C(F)(F)F)c2)c1 [10737/F11] was tested. Which “PDGF Kinase % Inhibition (P.119)” value did it give?
Its value is 16.5%.

How did the “PDGF Kinase % Inhibition (P.119)” value turn out when CCOc1ccc(C=C2C(=O)Nc3ccc(CCCl)cc32)cc1 [10737/G02] was run?
The value was −5.8%.

For Cc1ccc(C=C2C(=O)Nc3ccc(CCCl)cc32)c(C)c1 [10737/G03], which “PDGF Kinase % Inhibition (P.119)” value is on record?
The value was 21.7%.

How did the “PDGF Kinase % Inhibition (P.119)” value turn out when O=C1Nc2ccc(CCCl)cc2C1=Cc1cc(F)ccc1F [10737/G04] was run?
The value was 12.1%.

With O=C1Nc2ccc(CCCl)cc2C1=Cc1cccc(F)c1F [10737/G05] as the compound, how does the “PDGF Kinase % Inhibition (P.119)” value read?
The value was 16.1%.

With COc1ccc(C=C2C(=O)Nc3ccc(CCCl)cc32)cc1F [10737/G06] as the compound, how does the “PDGF Kinase % Inhibition (P.119)” value read?
The value was −10.2%.

How did the “PDGF Kinase % Inhibition (P.119)” value turn out when Cc1ccc(C)c(C=C2C(=O)Nc3ccc(CCCl)cc32)c1 [10737/G07] was run?
The value was 24.1%.

How did the “PDGF Kinase % Inhibition (P.119)” value turn out when O=C1Nc2ccc(CCCl)cc2C1=Cc1ccc2ccccc2c1 [10737/G08] was run?
The value was 13.7%.

With O=C1Nc2ccc(CCCl)cc2C1=Cc1ccc(Oc2ccccc2)cc1 [10737/G09] as the compound, how does the “PDGF Kinase % Inhibition (P.119)” value read?
The value was 8.2%.

Which “PDGF Kinase % Inhibition (P.119)” value does the source give for CC(C)(C)c1ccc(Oc2cccc(C=C3C(=O)Nc4ccc(CCCl)cc43)c2)cc1 [10737/G10] here?
The value was −0.2%.

For O=C1Nc2ccc(CCCl)cc2C1=Cc1cccc(Oc2cccc(C(F)(F)F)c2)c1 [10737/G11], which “PDGF Kinase % Inhibition (P.119)” value is on record?
Its value is 5.0%.

How did the “PDGF Kinase % Inhibition (P.119)” value turn out when CCOc1ccc(C=C2C(=O)Nc3c(Br)cc(Br)c(C)c32)cc1 [10737/H02] was run?
Its value is −18.1%.

With Cc1ccc(C=C2C(=O)Nc3c(Br)cc(Br)c(C)c32)c(C)c1 [10737/H03] as the compound, how does the “PDGF Kinase % Inhibition (P.119)” value read?
The value was −21.3%.

With Cc1c(Br)cc(Br)c2c1C(=Cc1cc(F)ccc1F)C(=O)N2 [10737/H04] as the compound, how does the “PDGF Kinase % Inhibition (P.119)” value read?
Its value is −21.3%.

For Cc1c(Br)cc(Br)c2c1C(=Cc1cccc(F)c1F)C(=O)N2 [10737/H05], which “PDGF Kinase % Inhibition (P.119)” value is on record?
The value was −6.2%.

COc1ccc(C=C2C(=O)Nc3c(Br)cc(Br)c(C)c32)cc1F [10737/H06] was tested. Which “PDGF Kinase % Inhibition (P.119)” value did it give?
The value was −1.8%.
